# Reference: patent publication US20150342897A1, “POLYPEPTIDE LOADED POCA NANOPARTICLES FOR ORAL ADMINISTRATION” (Glaxo Group Limited, priority 2012, published 2015)
# Assay: Reduction in blood glucose levels after single i.v. dose
# Format: in vivo, C57BL/6 mice
# Details: single i.v. dose equivalent to 1 μg/100 μl
# Method: C57BL/6 mice were given a single i.v. dose of exendin-4 loaded POCA nanoparticles (equivalent to 2 μg peptide/100 μl), non encapsulated (free) exendin-4 peptide (equivalent to 1 μg/100 μl) or saline as a control. In order to monitor blood glucose levels, 2-3 μl blood samples were taken from the peripheral tail vein of each animal prior to dosing and again at 0.5, 1, 2, 3, 4 and 8 hours post dose. Each sample was analysed using a hand held glucose monitor (BAYER […] BREEZE 2TM).
substance,measurement,setting,value
exendin-4 [non encapsulated exendin-4],reduction in blood glucose levels from baseline,"2 hours post dose, FIG. 3",~30%
same,blood glucose levels at 8 hours post dose,8 hours post dose,returned to baseline
